The results in this text go back to patent publication US9217012B2, “Inhibitors of protein tyrosine phosphatases” (Indiana University Research and Technology Corporation, priority 2009, dated 2015).

Read-outs that look alike come from different tables or passages of the source. Where a SMILES comes first, the peptide text is derived from it. [ ]: non-standard residue; d: D form. F2Pmp = N[CH](Cc1ccc(C(F)(F)P(=O)(O)O)cc1)C(=O)O

One test concerns the target PTP1B (Homo sapiens (Human), UniProt P18031). Description: PTP activity assay with pNPP substrate, PTP1B. Type of test: biochemical. The method, then: (§1) The PTP activity was assayed using p-nitrophenyl phosphate (pNPP) as a substrate in DMG buffer at 25° C. […] The reaction rate was measure using a SPECTRAMAX microplate spectrophotometer (Molecular Devices). For the determination of Km, the initial velocity and substrate concentration data were fitted to Michaelis-Menten equation using SIGMAPLOT. […] The assays were performed in 96-well plates. […] The reaction rate was measured using a Spectra Max Plus 384 Microplate Spectrophotometer (Molecular Devices). […] The reactions were incubated at room temperature for 30 min and quenched with 5N NaOH. The absorbance at 405 nm was read on the SpectraMax Plus 384 Microplate Spectrophotometer. For the reversibility test, the enzyme was incubated with the inhibitor at room temperature for 30 min before pNPP was added to initiate the reaction. The reaction was then incubated at room temperature for 30 min and quenched and read. […] Data were fitted using SigmaPlot Enzyme Kinetics Module (Systat Software, Inc.)

A further test deals with TC-PTP (Homo sapiens (Human), UniProt P17706). Kind of test: PTP activity assay with pNPP substrate, TC-PTP. The conditions noted are these: for IC50: read-out: IC50 for TC-PTP. It is filed as biochemical. The method, then: as §1
Sequence of TC-PTP (P17706 whole entry): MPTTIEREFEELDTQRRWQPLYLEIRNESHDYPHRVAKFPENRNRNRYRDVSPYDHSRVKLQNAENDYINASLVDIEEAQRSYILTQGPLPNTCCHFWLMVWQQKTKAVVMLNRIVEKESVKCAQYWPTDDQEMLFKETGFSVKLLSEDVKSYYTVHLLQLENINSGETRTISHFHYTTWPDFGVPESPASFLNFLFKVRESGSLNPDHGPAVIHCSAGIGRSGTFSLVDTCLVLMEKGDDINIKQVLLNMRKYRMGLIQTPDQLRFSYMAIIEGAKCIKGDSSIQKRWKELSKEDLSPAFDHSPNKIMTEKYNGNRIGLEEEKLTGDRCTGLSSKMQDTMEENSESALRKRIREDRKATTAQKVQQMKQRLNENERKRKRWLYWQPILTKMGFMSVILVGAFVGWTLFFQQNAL
Test [1] deals with EGFR phosphorylation in PTP1B−/− mouse embryo fibroblast cells. Description: Effect of TC-PTP inhibitor on EGFR phosphorylation (anti-pTyr immunoblot). It is filed as cell-based. The conditions noted are these: 200 nM. How it is done:
To determine the cellular efficacy of 10, its effect on tyrosine phosphorylation of EGFR, a known substrate of TC-PTP (Tiganis et al., 1998; Klingler-Hoffmann et al., 2001; Mattila et al., 2005) was assessed using an antibody against pTyr. The cells were incubated with 10 for 2 hr and subsequently treated either with or without EGF (2 ng/ml) for 10 min.
PTP1B^−/− cells were treated with TC-PTP inhibitor at indicated concentration for 2 h before EGF treatment. After EGF treatment (2 ng/ml) for 10 min, cells were lysed in 10 mM HEPES, pH 7.4, 150 mM NaCl, 10% Glycerol, 10 mM sodium phosphate, 10 mM sodium fluoride, 1 mM sodium pervanadate, 1 mM benzamidine, 1% Triton X-100, 10 μg/ml leupeptin, and 5 μg/ml aprotinin. Cell lysates were cleared by centrifugation at 15,000 rpm for 10 min. The lysate protein concentration was estimated using the BCA protein assay kit (PIERCE). To detect EGFR phosphorylation levels, 10 μg of anti-EGFR antibody (CELL SIGNALING, #2232) was added to 1 mg of cell lysate and incubated at 4° C. for 2 h. […] of protein A/G-agarose beads were then added and incubated for another 2 h. After extensive washing, the protein complex was boiled with sample buffer, separated by SDS-PAGE, transferred electrophoretically to PVDF membrane, and immunoblotted with anti-pTyr antibodies (MILLIPORE, #05-1050) followed by incubation with horseradish peroxidase-conjugated secondary antibodies. The blots were developed by the enhanced chemiluminescence technique (ECL kit, AMERSHAM BIOSCIENCES).
PTP1B^−/− mouse embryo fibroblast cells were treated with TC-PTP inhibitor at the indicated concentration for 2 h prior to EGF treatment. After EGF treatment (2 ng/mL) for 10 min, cells were lysed in 10 mM HNEPES, pH 7.4, […], 10% Glycerol, 10 mM sodium phosphate, 10 mM sodium fluoride, 1 mM sodium pervanadate, 1 mM benzamidine, 1% Triton X-100, 10 μg/mL leupeptin, and 5 μg/mL aprotinin. Cell lysates were cleared by centrifugation at 15 000 rpm for 10 min. The lysate protein concentration was estimated using the BAC protein assay kit (Pierce). To detect EGFR phosphorylation levels, 10 μg of anti-EGFR antibody (Cell Signaling, #2232) were added to 1 mg of cell lysate and incubated at 4° C. for 2 h. 20 μL of protein A/G-agarose beads were then added and incubated for another 2 hr. After extensive washing, the protein complex was boiled with sample buffer, separated by SDS-PAGE, transferred electrophoretically to a PVDF membrane, and immunoblotted with anti-pTyr antibodies (Millipore, #5-1050) followed by incubation with horseradish peroxidase conjugalated secondary antibodies. The blots were developed by enhanced chemiluminescence technique (ECL kit, Amersham Biosciences).
The cellular efficacy of compound 10 was assessed by examining its effect on tyrosine phosphorylation of EGFR, a known substrate of TC-PTP. Referring now to FIG. 2 B. PTP1B^−/− mouse embryo filbroblast cells were incubated with compound 10 at various concentrations for 2 h and subsequently treated either with or without EGF (2 ng/mL) for 10 min Inhibition of TC-PTP is expected to enhance endrogenous levels of phosphorylated EGFR. […] Remarkably, the phosphorylated form of EGFR is increased nearly 2-fold even at an inhibitor concentration of 5 nM (1.2×Ki).

The mark [2] stands for this setting: 2 mM pNPP, DMG buffer, 25° C., Table 1.

Sequence of PTP1B (P18031 whole entry, species assumed): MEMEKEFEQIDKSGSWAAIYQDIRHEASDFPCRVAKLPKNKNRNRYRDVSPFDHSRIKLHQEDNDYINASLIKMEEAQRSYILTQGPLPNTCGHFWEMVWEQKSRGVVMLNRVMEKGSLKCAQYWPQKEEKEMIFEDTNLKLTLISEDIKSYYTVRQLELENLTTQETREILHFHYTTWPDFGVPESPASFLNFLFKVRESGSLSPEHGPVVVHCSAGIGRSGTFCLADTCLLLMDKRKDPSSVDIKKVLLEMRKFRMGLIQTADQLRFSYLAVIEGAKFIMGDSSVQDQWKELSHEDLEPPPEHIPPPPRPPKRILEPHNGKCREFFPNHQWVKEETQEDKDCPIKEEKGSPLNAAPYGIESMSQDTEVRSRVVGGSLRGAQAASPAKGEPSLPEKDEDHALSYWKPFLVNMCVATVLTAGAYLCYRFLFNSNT

In the case of `CCc1ccc(C(=O)NCCCCC(NC(=O)C(Cc2ccc(C(F)(F)P(=O)(O)O)cc2)NC(=O)C(Cc2ccccc2)NC(C)=O)C(N)=O)cc1` (stereo not shown) [Compound 8], the IC50 (usually the point on the concentration scale where inhibition reaches its midpoint) on PTP1B (setting [2]) worked out at 0.087 ± 0.002 µM. Moreover, the IC50 at TC-PTP (setting [2]) amounted to 0.026 ± 0.002 µM. Moreover, on TC-PTP (relative to compound 6), the “change in selectivity against PTP1B relative to 6” value is given as “no appreciable change” and the “fold increase in affinity for TC-PTP relative to 6” value turned out to be 6.2 fold.

`O=C(N[C@@H](Cc1ccc(C(F)(F)P(=O)(O)O)cc1)C(=O)O)OCC1c2ccccc2-c2ccccc21` [Fmoc-F2Pmp-OH, reference compound]: the IC50 at PTP1B (known competitive ligand) and on TC-PTP (known competitive ligand) was 20 µM in each case.

Consider `CC(=O)NCCCCC(NC(=O)C(Cc1ccc(C(F)(F)P(=O)(O)O)cc1)NC(C)=O)C(N)=O` (stereo not shown) [Compound 4] (Ac-[F2Pmp]-Lys(Ac)-NH2; configuration not given here), for which the IC50 against PTP1B (setting [2]) and on TC-PTP (setting [2]) was 2 µM each time.

For the compound `CCc1ccc(C(=O)NCCCCC(NC(=O)C(Cc2ccc(C(F)(F)P(=O)(O)O)cc2)NC(C)=O)C(N)=O)cc1` (stereo not shown) [Compound 6], the results for the IC50 against PTP1B (setting [2]) and at TC-PTP (setting [2]) were 0.7 ± 0.02 µM and 0.16 ± 0.02 µM, respectively. For the same compound, the “selectivity for TC-PTP over PTP1B” value at TC-PTP (TC-PTP versus PTP1B) is on record as 4.4 fold. For the same compound, the “fold lower TC-PTP IC50 than parent compound 4” value on TC-PTP (relative to compound 4) is 12.5 fold.

As for `CCc1ccc(C(=O)NCCCCC(NC(=O)C(Cc2ccccc2)NC(=O)C(Cc2ccccc2)NC(=O)COC2CC(C)CCC2C(C)C)C(N)=O)cc1` (stereo not shown) [Compound 11], the “effect on EGFR phosphorylation” value in test [1] is recorded as “no effect”.
